The values below come from patent publication US7728036B2, “Methods for delivery of catecholic butanes for treatment of tumors” (priority 2003, dated 2010).

Structures are written as SMILES.

The subject of series [1] is human mammary carcinoma MX-1 xenograft. Conditions: intratumor injection or topical application of NDGA; cited from earlier work.
Series [2] can be described thus: Solubility character. The format is physicochemical.
For series [3], the system named is HPV-16 transformed immortal mouse epithelial cells (C3). Conditions: intratumor injection; cited from earlier work.

`CC(Cc1ccc(O)c(O)c1)C(C)Cc1ccc(O)c(O)c1` (stereo not drawn) [NDGA, nordihydroguaiaretic acid]: in series [1], the “Inhibition of tumor growth” value was “Some evidence of inhibition of tumor growth”.

`C[C@H](Cc1ccc(OC(=O)CN(C)C)c(OC(=O)CN(C)C)c1)[C@@H](C)Cc1ccc(OC(=O)CN(C)C)c(OC(=O)CN(C)C)c1` [G4N, meso-1,4-bis[3,4-(dimethylaminoacetoxy)phenyl]-(2R,3S)-dimethylbutane]: the “Water solubility / hydrophilic or lipophilic character” value in series [2] is “water-soluble, hydrophilic”. Further, the “Suppression of tumor growth / tumoricidal activity” value in series [3] is listed as “some evidence of suppression of tumor growth”.
